Results: US10472356B2, “Bicyclic ketone sulfonamide compounds” (AMGEN INC., priority 2015, dated 2019)

Assays:
Type in all cases: cell-based
human Nav1.7 [1] = molecular target: T1, human Nav1.7 (Homo sapiens, UniProt Q15858); assay: Nav 1.7 IWQ In Vitro Assay (IonWorks Quattro); details: HEK293 cells stably transfected with human Nav 1.7; IonWorks Quattro population patch-clamp; 26th pulse to −20 mV, 5 Hz; cells unclamped 5 to 8 minutes with compound; read-out: hNav1.7 IWQ IC50
T1 construct: expressed in transfected cells; host or cells: HEK293
Protocol: Nav 1.7 or Nav 1.5 IWQ In Vitro Assay
HEK293 cells stably transfected with either human Nav 1.7 or human Nav 1.5 were recorded in population patch-clamp mode with the IonWorks® Quattro automated electrophysiology system (Molecular Devices, LLC, Sunnyvale, Calif.). Cells were voltage clamped to −110 mV for three seconds (Nav 1.7) or half a second (Nav 1.5) and sodium currents were elicited by a train of 26 depolarizations of 150 msec duration to −20 mV (Nav 1.7) or 0 mV (Nav 1.5) at a frequency of 5 Hz. Cells were then left unclamped for a period of 5 to 8 minutes while a single concentration of test compound was added. Following this compound incubation period, cells were then reclamped to −110 mV for three seconds (Nav1.7) or half a second (Nav1.5) to recover unbound channels and put through the same 26 pulse voltage protocol as above. Peak inward current during the 26th pulse to −20 mV (Nav 1.7) or 0 mV (Nav 1.5) in the presence of compound was divided by the peak inward current evoked by the 26th pulse to −20 mV (Nav1.7) or 0 mV (Nav1.5) in the absence of compound to determine percent inhibition. Concentration-response curves of percent.

human Nav1.7 [2] = molecular target: T1, human Nav1.7; assay: Nav 1.7 In Vitro PatchXpress (PX) Assay; details: HEK 293 cells stably transfected with human Nav1.7; PatchXpress whole cell voltage clamp; partially inactivated state (holding potential yielding 20 to 50% inactivation); read-out: hNav1.7 PX IC50
How it was run: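 Whole-cell voltage clamp on HEK 293 cells stably expressing human Nav1.7 (automated patch), holding potential giving 20–50% inactivation; 20 ms pulses to −10 mV at 0.1 Hz. Single compound concentration applied 3 min, peak current inhibition measured; IC50 fitted from 3–5 cells per concentration.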

human Nav1.7 [3] = molecular target: T1, human Nav1.7; assay: Nav 1.7 IWB In Vitro Assay (IonWorks Barracuda); details: HEK293 cells stably transfected with human Nav 1.7; IonWorks Barracuda population patch-clamp; cells clamped to −20 mV for 4 minutes with compound; 26th pulse; read-out: hNav1.7 IWB IC50
How it was run: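 Population patch clamp of HEK293 cells stably expressing human Nav 1.7: 26 pulses to −20 mV (150 ms, 5 Hz) from −110 mV, then 4 min at −20 mV with compound, 3 s recovery at −110 mV and the train repeated. % inhibition of 26th-pulse peak current vs no compound; IC50 from concentration-response curves.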

T1 sequence (Q15858 whole entry): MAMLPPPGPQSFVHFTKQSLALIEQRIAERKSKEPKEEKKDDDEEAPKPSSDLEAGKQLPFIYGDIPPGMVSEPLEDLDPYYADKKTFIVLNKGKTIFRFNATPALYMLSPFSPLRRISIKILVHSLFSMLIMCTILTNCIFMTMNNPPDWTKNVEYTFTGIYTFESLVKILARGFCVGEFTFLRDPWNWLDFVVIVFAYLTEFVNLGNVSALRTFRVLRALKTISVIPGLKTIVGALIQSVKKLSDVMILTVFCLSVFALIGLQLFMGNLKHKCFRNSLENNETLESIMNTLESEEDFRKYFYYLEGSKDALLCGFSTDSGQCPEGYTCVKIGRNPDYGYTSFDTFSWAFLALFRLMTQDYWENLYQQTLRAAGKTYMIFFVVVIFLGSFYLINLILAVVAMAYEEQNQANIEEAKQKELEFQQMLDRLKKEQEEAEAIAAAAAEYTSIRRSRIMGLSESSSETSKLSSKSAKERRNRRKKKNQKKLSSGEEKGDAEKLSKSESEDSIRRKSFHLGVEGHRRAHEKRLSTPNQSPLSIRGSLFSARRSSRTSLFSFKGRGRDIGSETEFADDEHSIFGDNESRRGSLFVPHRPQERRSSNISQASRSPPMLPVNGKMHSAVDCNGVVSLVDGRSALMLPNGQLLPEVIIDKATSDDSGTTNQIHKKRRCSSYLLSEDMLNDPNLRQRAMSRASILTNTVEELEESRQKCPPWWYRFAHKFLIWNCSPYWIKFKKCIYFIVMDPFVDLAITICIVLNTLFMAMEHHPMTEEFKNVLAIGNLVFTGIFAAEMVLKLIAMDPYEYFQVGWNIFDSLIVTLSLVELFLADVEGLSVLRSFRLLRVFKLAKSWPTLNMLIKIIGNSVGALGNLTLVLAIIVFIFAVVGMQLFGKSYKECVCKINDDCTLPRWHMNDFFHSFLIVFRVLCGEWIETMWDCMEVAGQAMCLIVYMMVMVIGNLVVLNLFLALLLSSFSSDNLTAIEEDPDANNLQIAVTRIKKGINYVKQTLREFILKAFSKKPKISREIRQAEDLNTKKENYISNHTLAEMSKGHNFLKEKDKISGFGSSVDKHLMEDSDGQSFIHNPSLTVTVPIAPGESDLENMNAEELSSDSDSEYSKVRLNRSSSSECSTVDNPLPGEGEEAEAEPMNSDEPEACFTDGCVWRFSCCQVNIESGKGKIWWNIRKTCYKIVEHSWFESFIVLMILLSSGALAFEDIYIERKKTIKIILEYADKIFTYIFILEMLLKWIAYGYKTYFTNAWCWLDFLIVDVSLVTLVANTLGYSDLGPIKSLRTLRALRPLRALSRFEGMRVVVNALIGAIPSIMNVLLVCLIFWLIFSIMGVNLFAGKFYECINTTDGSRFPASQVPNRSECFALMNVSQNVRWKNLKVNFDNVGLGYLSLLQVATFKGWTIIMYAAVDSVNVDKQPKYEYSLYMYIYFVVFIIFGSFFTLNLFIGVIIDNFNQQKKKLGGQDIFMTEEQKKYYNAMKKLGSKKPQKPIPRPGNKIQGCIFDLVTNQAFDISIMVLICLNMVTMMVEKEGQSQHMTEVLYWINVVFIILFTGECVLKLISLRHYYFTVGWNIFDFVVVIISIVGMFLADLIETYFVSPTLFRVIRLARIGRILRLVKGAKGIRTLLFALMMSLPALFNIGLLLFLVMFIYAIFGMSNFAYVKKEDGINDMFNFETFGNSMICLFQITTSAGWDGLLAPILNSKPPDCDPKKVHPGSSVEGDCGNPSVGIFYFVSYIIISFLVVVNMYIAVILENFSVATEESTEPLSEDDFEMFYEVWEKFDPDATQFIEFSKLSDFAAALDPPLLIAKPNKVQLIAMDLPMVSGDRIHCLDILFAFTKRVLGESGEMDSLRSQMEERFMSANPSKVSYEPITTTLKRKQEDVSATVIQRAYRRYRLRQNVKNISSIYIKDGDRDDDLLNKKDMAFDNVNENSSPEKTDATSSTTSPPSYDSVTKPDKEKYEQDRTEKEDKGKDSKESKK

Structure (SMILES) | IC50 (human Nav1.7 [1]) | IC50 (human Nav1.7 [2]) | IC50 (human Nav1.7 [3])
COc1cc(-c2ccc(Cl)c(C#N)c2)c(F)cc1-n1c2c(ccc1=O)CN(S(=O)(=O)Nc1ccon1)CC2 (racemic) [Example 35, (Rac)-1-(4′-chloro-3′-cyano-2-fluoro-5-methoxy-4-biphenylyl)-N-3-isoxazolyl-2-oxo-1,5,7,8-tetrahydro-1,6-naphthyridine-6(2H)-sulfonamide] | 4 nM | 177 nM | 18 nM
COc1nc(-c2cc(F)cc(Cl)c2)c(F)cc1-n1c2c(ccc1=O)CN(S(=O)(=O)Nc1cccnn1)CC2 (racemic) [Example 37, (Rac)-1-(6-(3-chloro-5-fluorophenyl)-5-fluoro-2-methoxy-3-pyridinyl)-2-oxo-N-3-pyridazinyl-1,5,7,8-tetrahydro-1,6-naphthyridine-6(2H)-sulfonamide] | 137 nM | 1030 nM | 269 nM
COc1cc(-c2cc(F)cc(Cl)c2)c(F)cc1-n1c2c(ccc1=O)CN(S(=O)(=O)Nc1cccnn1)CC2 (racemic) [Example 38-(Rac), (Rac)-1-(3′-chloro-2,5′-difluoro-5-methoxy-4-biphenylyl)-2-oxo-N-3-pyridazinyl-1,5,7,8-tetrahydro-1,6-naphthyridine-6(2H)-sulfonamide] | 16.7 nM | 87.8 nM | 10.2 nM
COc1cc(-c2ccc(Cl)c(C)c2)c(F)cc1-n1c2c(ccc1=O)CN(S(=O)(=O)Nc1nccs1)CC2 (racemic) [Example 39, (Rac)-1-(4′-chloro-2-fluoro-5-methoxy-3′-methyl-4-biphenylyl)-2-oxo-N-1,3-thiazol-2-yl-1,5,7,8-tetrahydro-1,6-naphthyridine-6(2H)-sulfonamide] | 15.2 nM | 35.1 nM | 37.8 nM
COc1cc(-c2cc(OC)c(-n3c4c(ccc3=O)CN(S(=O)(=O)Nc3ccon3)CC4)cc2F)ccc1C (racemic) [Example 58-(Rac), (Rac)-1-(2-fluoro-3′,5-dimethoxy-4′-methyl-4-biphenylyl)-N-3-isoxazolyl-2-oxo-1,5,7,8-tetrahydro-1,6-naphthyridine-6(2H)-sulfonamide] | 12.3 nM | 78 nM | 24.1 nM
COc1cc(-c2cc(OC)c(-n3c4c(ccc3=O)CN(S(=O)(=O)Nc3cccnn3)CC4)cc2F)ccc1Cl (single isomer, unassigned) [Example 2-M, M-1-(4′-chloro-2-fluoro-3′,5-dimethoxy-4-biphenylyl)-2-oxo-N-3-pyridazinyl-1,5,7,8-tetrahydro-1,6-naphthyridine-6(2H)-sulfonamide] | 255 nM | 5530 nM | 132 nM
COc1cc(-c2cc(OC)c(-n3c4c(ccc3=O)CN(S(=O)(=O)Nc3cccnn3)CC4)cc2F)ccc1Cl (single isomer, unassigned) [Example 2-P, P-1-(4′-chloro-2-fluoro-3′,5-dimethoxy-4-biphenylyl)-2-oxo-N-3-pyridazinyl-1,5,7,8-tetrahydro-1,6-naphthyridine-6(2H)-sulfonamide] | < 19 nM | 259 nM | 6.6 nM
COc1cc(-c2cc(F)cc(F)c2)c(F)cc1-n1c2c(ccc1=O)[C@H](C)N(S(=O)(=O)Nc1ccon1)CC2 (single isomer, unassigned) [Example 3-B-P] | 224 nM | 2080 nM | 197 nM
COc1cc(-c2cc(F)cc(Cl)c2)c(F)cc1-n1c2c(ccc1=O)CN(S(=O)(=O)Nc1cc(C)ncn1)CC2 (single isomer, unassigned) [Example 4-P, P-1-(3′-chloro-2,5′-difluoro-5-methoxy-4-biphenylyl)-N-(6-methyl-4-pyrimidinyl)-2-oxo-1,5,7,8-tetrahydro-1,6-naphthyridine-6(2H)-sulfonamide] | 24.3 nM | 78.4 nM | 31.8 nM
COc1cc(-c2cc(F)cc(Cl)c2)c(F)cc1-n1c2c(ccc1=O)CN(S(=O)(=O)Nc1ncns1)CC2 (single isomer, unassigned) [Example 5-P, P-1-(3′-chloro-2,5′-difluoro-5-methoxy-4-biphenylyl)-2-oxo-N-1,2,4-thiadiazol-5-yl-1,5,7,8-tetrahydro-1,6-naphthyridine-6(2H)-sulfonamide] | 1.6 nM | 12.3 nM | 1.5 nM
COc1cc(-c2cc(F)cc(Cl)c2)c(F)cc1-n1c2c(ccc1=O)CN(S(=O)(=O)Nc1ccnc(C)n1)CC2 (single isomer, unassigned) [Example 6-P, P-1-(3′-chloro-2,5′-difluoro-5-methoxy-4-biphenylyl)-N-(2-methyl-4-pyrimidinyl)-2-oxo-1,5,7,8-tetrahydro-1,6-naphthyridine-6(2H)-sulfonamide] | 25.4 nM | 269 nM | 64.8 nM
COc1cc(-c2cc(F)cc(Cl)c2)ccc1-n1c2c(ccc1=O)CN(S(=O)(=O)Nc1ccon1)CC2 (single isomer, unassigned) [Example 7-P, P-1-(3′-chloro-5′-fluoro-3-methoxy-4-biphenylyl)-N-3-isoxazolyl-2-oxo-1,5,7,8-tetrahydro-1,6-naphthyridine-6(2H)-sulfonamide] | 7.8 nM | 76.3 nM | 14.3 nM
COc1cc(-c2cc(Cl)ccc2C)c(F)cc1-n1c2c(ccc1=O)CN(S(=O)(=O)Nc1ccon1)CC2 (single isomer, unassigned) [Example 9-P, P-1-(5′-chloro-2-fluoro-5-methoxy-2′-methyl-4-biphenylyl)-N-3-isoxazolyl-2-oxo-1,5,7,8-tetrahydro-1,6-naphthyridine-6(2H)-sulfonamide] | 2.1 nM | 18 nM | 3.1 nM
COc1cc(-c2cc(F)cc(Cl)c2)c(F)cc1-n1c2c(ccc1=O)CN(S(=O)(=O)Nc1ccccn1)CC2 (single isomer, unassigned) [Example 11-P, P-1-(3′-chloro-2,5′-difluoro-5-methoxy-4-biphenylyl)-2-oxo-N-2-pyridinyl-1,5,7,8-tetrahydro-1,6-naphthyridine-6(2H)-sulfonamide] | 54 nM | 166 nM | 55.3 nM
COc1cc(-c2cc(F)cc(Cl)c2)c(F)cc1-n1c2c(ccc1=O)CN(S(=O)(=O)Nc1ccc(F)cn1)CC2 (single isomer, unassigned) [Example 12-P, P-1-(3′-chloro-2,5′-difluoro-5-methoxy-4-biphenylyl)-N-(5-fluoro-2-pyridinyl)-2-oxo-1,5,7,8-tetrahydro-1,6-naphthyridine-6(2H)-sulfonamide] | 56.6 nM | 44.5 nM | 52.5 nM
COc1cc(-c2cc(F)cc(Cl)c2)c(F)cc1-n1c2c(ccc1=O)CN(S(=O)(=O)Nc1cccc(F)n1)CC2 (single isomer, unassigned) [Example 13-P, P-1-(3′-chloro-2,5′-difluoro-5-methoxy-4-biphenylyl)-N-(6-fluoro-2-pyridinyl)-2-oxo-1,5,7,8-tetrahydro-1,6-naphthyridine-6(2H)-sulfonamide] | 28.4 nM | 27.9 nM | 27.1 nM
COc1cc(-c2cc(F)cc(F)c2)c(F)cc1-n1c2c(ccc1=O)CN(S(=O)(=O)Nc1cccc(F)n1)CC2 (single isomer, unassigned) [Example 14-P, P-N-(6-fluoro-2-pyridinyl)-2-oxo-1-(2,3′,5′-trifluoro-5-methoxy-4-biphenylyl)-1,5,7,8-tetrahydro-1,6-naphthyridine-6(2H)-sulfonamide] | 26 nM | 103 nM | 12.4 nM
COc1cc(-c2cccc(C(F)(F)F)c2)c(F)cc1-n1c2c(ccc1=O)CN(S(=O)(=O)Nc1ccon1)CC2 (single isomer, unassigned) [Example 16-P, P-1-(2-fluoro-5-methoxy-3′-(trifluoromethyl)-4-biphenylyl)-N-3-isoxazolyl-2-oxo-1,5,7,8-tetrahydro-1,6-naphthyridine-6(2H)-sulfonamide] | 2.6 nM | 15.8 nM | 2.4 nM
COc1cc(-c2cc(F)cc(Cl)c2)c(F)cc1-n1c2c(ccc1=O)CN(S(=O)(=O)Nc1ccon1)CC2 (single isomer, unassigned) [Example 18-P, P-1-(3′-chloro-2,5′-difluoro-5-methoxy-4-biphenylyl)-N-3-isoxazolyl-2-oxo-1,5,7,8-tetrahydro-1,6-naphthyridine-6(2H)-sulfonamide] | 2.9 nM | 17.5 nM | 3.9 nM
